Data from ChEMBL document CHEMBL1201862, “PubChem BioAssay data set” (2004).
Active and inactive are the calls of the source.

How the values were obtained:
[1] = target: Neuropeptide Y receptor type 1 (Homo sapiens, UniProt P25929); type: functional;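 note: HEK293 cells with a CNG channel challenged with NPY then isoproterenol; potency as antagonist that reverses NPY suppression of cAMP signal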
[2] = target: Neuropeptide Y receptor type 2 (Homo sapiens, UniProt P49146); type: functional, cell-based;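 note: HEK293 cells expressing the receptor and a CNG channel; stimulus was NPY near EC95 followed by isoproterenol to raise cAMP; antagonist potency measured as restoring cAMP signal that NPY suppresses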
Neuropeptide Y receptor type 2, sequence (P49146 whole entry): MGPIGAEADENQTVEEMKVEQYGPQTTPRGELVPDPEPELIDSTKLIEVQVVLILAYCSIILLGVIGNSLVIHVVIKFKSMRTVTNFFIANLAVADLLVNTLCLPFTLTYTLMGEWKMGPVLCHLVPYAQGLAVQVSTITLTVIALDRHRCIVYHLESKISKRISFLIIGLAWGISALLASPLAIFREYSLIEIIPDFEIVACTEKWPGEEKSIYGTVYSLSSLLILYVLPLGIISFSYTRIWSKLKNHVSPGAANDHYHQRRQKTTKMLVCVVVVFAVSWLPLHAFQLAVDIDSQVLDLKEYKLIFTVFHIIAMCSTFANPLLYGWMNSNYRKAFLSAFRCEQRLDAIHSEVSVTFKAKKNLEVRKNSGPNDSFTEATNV

Bcl-2-like protein 10 = target: T1, Bcl-2-like protein 10 (Homo sapiens, UniProt Q9HD36); assay: Biochemical TR3 FP assay of Bcl-B inhibitor potency, EC50 (AID 1243); type: functional
T1 sequence (Q9HD36 whole entry): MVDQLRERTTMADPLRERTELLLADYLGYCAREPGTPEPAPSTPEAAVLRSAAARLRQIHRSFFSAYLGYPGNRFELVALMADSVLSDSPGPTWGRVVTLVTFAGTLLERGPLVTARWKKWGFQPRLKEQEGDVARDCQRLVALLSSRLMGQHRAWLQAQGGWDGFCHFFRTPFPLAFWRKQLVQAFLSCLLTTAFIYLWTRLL

[3] = HIV-1 Env-mediated cell fusion inhibitors, dose response, CCR5-tropic Env (AID 2279); type: functional
[4] = target: Induced myeloid leukemia cell differentiation protein Mcl-1 (Homo sapiens, UniProt Q07820); type: functional
[5] = target: FAD-linked sulfhydryl oxidase ALR (Homo sapiens, UniProt P55789); assay: inhibitors of human ALR sulfhydryl oxidase, dose response, biochemical, H2O2 detection, luminescence, cherry-pick (AID 493248)
FAD-linked sulfhydryl oxidase ALR, sequence (P55789 whole entry): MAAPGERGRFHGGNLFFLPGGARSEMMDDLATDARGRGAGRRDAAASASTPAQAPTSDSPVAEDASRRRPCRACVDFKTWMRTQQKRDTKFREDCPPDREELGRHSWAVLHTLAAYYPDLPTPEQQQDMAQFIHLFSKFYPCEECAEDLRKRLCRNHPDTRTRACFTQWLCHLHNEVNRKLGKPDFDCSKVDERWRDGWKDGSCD

Vero = Vero cell cytotoxicity, cytotoxicity control for flavivirus capping enzyme inhibitors (AID 588742); type: functional; conditions: Chlorocebus sabaeus
Genome polyprotein = Genome polyprotein (dengue virus type 2, UniProt P29990); assay: Dengue-2 NS5 methyltransferase inhibitors, primary screen, biochemical, confirmation dose response (AID 588689); type: functional
Genome polyprotein, sequence (P29990 2492-3391 limits assumed): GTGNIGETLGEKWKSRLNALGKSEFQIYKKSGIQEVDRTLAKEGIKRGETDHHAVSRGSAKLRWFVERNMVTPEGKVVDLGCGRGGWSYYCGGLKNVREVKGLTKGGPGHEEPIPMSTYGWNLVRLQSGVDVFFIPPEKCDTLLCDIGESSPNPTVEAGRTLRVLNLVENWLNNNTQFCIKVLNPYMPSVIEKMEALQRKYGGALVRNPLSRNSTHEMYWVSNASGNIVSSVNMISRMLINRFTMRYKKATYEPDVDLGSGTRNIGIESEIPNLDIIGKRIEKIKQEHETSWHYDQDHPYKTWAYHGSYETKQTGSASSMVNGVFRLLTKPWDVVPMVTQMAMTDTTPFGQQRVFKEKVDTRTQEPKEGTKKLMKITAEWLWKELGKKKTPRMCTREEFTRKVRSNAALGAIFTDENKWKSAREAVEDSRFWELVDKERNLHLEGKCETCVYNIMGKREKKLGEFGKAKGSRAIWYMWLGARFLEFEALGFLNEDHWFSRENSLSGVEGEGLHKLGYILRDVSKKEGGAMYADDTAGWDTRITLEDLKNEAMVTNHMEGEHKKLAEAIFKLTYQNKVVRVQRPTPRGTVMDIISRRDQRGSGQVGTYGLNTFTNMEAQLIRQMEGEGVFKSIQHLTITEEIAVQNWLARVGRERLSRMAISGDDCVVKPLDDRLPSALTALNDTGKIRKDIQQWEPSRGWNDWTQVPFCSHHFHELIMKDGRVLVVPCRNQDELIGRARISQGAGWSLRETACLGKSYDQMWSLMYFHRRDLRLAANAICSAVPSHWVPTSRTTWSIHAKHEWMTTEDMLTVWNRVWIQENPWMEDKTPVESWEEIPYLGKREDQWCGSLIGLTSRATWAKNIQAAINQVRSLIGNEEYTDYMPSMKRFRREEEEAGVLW

[6] = target: G2/mitotic-specific cyclin-B1 (Homo sapiens, UniProt P14635); assay: Counterscreen assay for inhibitors of Wee1 degradation: dose response cell-based assay to identify inhibitors of cyclin B degradation. [Related pubchem assays: 1410, 1321 ]; type: functional
G2/mitotic-specific cyclin-B1, sequence (P14635 whole entry): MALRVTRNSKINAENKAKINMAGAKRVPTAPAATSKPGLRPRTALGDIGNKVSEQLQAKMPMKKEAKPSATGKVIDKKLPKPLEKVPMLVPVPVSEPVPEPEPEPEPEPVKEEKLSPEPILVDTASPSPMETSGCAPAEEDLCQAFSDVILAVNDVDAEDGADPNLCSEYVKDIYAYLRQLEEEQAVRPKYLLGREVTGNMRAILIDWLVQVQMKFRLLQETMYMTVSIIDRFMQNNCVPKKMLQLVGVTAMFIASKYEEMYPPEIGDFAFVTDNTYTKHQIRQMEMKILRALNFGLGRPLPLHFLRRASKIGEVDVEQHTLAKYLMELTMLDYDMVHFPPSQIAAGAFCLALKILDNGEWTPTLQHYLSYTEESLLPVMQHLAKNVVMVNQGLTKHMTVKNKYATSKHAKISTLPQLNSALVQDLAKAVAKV

Wee1-like protein kinase = Wee1-like protein kinase (Homo sapiens, UniProt P30291); assay: Dose Response Cell-based Assay for Inhibitors of Wee1 Degradation. [Related pubchem assays: 1410, 1321 ]; type: functional
Wee1-like protein kinase, sequence (P30291 whole entry): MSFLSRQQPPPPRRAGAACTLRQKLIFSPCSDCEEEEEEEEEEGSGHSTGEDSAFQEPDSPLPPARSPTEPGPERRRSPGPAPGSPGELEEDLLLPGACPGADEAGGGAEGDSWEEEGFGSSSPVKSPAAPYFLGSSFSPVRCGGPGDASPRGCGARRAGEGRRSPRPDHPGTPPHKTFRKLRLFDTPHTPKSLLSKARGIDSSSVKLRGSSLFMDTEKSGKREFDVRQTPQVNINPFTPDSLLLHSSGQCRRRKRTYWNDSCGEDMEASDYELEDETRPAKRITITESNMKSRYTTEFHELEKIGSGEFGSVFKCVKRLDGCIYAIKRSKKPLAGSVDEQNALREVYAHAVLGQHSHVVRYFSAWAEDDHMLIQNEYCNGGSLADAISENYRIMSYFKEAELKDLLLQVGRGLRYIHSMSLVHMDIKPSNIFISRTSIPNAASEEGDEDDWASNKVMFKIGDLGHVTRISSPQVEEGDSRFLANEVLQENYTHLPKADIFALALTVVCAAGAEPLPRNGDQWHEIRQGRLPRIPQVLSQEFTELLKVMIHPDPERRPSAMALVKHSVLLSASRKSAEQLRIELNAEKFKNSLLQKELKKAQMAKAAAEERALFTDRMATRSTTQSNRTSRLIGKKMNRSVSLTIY

Beta-galactosidase = Beta-galactosidase (Escherichia coli, UniProt Q8VNN2); assay: Dose response counterscreen for EBI2 assay utilizing the enzyme, b-galactosidase.; type: functional
Beta-galactosidase, sequence (Q8VNN2 whole entry): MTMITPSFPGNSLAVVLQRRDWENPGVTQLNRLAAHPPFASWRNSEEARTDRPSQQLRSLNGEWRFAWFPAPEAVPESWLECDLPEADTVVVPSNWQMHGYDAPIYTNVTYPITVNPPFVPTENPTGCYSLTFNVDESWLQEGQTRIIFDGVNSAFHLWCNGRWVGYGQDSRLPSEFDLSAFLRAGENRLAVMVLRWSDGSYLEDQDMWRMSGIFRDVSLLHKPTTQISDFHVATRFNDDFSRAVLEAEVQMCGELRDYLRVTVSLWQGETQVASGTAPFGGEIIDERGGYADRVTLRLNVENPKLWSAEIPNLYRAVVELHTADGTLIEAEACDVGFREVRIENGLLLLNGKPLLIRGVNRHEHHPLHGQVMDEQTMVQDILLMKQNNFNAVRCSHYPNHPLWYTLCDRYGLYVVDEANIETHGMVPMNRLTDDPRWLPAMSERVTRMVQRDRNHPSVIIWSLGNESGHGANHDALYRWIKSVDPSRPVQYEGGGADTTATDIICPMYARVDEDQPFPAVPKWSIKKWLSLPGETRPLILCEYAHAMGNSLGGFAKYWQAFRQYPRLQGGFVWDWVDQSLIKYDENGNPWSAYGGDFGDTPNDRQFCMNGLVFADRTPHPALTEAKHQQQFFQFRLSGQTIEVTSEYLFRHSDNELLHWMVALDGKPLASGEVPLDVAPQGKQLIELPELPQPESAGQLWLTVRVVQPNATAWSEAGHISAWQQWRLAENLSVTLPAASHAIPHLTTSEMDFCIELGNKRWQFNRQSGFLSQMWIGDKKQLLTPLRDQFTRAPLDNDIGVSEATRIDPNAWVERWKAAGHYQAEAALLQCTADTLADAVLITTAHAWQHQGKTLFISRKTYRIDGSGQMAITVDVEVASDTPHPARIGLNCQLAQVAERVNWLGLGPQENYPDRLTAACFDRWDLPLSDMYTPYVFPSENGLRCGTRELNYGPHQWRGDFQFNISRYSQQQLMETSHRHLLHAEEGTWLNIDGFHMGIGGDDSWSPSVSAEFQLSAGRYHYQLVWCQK

[7] = inhibitors of Bluetongue virus cytopathic effect, confirmation, arbovirus, BSR cells (AID 1250); type: functional;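 note: protection from viral cytopathic effect measured as cell viability by ATP luminescence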
[8] = growth suppression of PTEN-null colon cells, dose response, cell-based, HCT116 PTEN knockout (AID 1047); type: functional;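 note: HCT116 colon tumor cells with PTEN knocked out; cells exposed to compound for 60 hours before readout; potency for loss of cell viability measured by luminescence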
[9] = growth suppression of beta-catenin-knockout colon cells, dose response, cell-based, HCT116, human colon tumor (AID 1045); type: functional;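 note: HCT116 colon tumor cells with beta catenin knocked out; cells exposed to compound for 60 hours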
[10] = target: Sphingosine 1-phosphate receptor 4 (Homo sapiens, UniProt O95977); assay: Fluorescence dose response cell-based high throughput screening assay for antagonists of the Sphingosine 1-Phosphate Receptor 4 (S1P4). [Related pubchem assays: 1524 (Confirmation in triplicates.), 1510 (Primary screen.)]; type: functional
Sphingosine 1-phosphate receptor 4, sequence (O95977 whole entry): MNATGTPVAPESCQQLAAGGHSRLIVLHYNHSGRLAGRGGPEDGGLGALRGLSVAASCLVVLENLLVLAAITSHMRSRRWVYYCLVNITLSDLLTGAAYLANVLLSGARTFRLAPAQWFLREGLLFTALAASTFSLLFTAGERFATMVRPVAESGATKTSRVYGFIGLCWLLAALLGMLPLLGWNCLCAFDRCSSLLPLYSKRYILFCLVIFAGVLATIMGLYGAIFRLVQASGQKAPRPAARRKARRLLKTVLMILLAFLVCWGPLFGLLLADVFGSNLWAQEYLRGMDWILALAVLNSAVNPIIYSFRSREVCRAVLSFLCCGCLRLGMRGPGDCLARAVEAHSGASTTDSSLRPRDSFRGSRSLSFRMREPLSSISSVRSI

[11] = target: Sphingosine 1-phosphate receptor 1 (Homo sapiens, UniProt P21453); type: functional;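 note: Tango beta-arrestin reporter U2OS cells stimulated with S1P near its EC80; inhibitor potency meaning antagonism of receptor activation by the natural agonist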
Sphingosine 1-phosphate receptor 1, sequence (P21453 whole entry): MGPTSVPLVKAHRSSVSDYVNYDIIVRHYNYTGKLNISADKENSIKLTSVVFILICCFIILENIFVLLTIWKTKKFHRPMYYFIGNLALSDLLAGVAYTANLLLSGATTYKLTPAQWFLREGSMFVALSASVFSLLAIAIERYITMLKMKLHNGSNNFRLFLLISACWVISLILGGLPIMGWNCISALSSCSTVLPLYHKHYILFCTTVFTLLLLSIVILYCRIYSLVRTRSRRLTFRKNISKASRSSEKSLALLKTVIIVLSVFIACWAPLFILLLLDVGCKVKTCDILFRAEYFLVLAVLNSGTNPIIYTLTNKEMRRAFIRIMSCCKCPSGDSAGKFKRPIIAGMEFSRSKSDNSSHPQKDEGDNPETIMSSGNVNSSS

[12] = target: T2, Microphthalmia-associated transcription factor (Homo sapiens, UniProt O75030); assay: TRPM1 promoter luciferase signal decrease, dose response, MITF inhibitor project, cell-based, SK-MEL-5, cherry-picked, set 3 (AID 493073); type: functional
T2 sequence (O75030 whole entry): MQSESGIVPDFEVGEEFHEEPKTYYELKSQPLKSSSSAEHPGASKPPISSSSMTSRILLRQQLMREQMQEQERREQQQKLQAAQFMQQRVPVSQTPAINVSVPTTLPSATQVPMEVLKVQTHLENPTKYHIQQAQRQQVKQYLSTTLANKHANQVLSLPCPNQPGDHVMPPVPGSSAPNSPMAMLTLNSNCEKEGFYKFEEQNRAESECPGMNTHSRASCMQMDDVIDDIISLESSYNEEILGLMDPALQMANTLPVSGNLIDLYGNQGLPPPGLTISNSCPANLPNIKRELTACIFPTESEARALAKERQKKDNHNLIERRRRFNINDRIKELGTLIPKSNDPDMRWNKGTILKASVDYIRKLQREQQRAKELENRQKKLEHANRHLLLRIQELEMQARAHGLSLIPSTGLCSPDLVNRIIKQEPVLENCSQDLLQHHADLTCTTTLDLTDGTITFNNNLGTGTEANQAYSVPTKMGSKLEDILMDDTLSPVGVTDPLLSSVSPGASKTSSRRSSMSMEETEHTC

[13] = inhibitors of PGC1a acetylation in cells, dose response, cell-based, cherry-picked samples (AID 720514); type: functional;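 note: potency may reflect raised or lowered acetylation signal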

Neuropeptide Y receptor type 1, sequence (P25929 whole entry): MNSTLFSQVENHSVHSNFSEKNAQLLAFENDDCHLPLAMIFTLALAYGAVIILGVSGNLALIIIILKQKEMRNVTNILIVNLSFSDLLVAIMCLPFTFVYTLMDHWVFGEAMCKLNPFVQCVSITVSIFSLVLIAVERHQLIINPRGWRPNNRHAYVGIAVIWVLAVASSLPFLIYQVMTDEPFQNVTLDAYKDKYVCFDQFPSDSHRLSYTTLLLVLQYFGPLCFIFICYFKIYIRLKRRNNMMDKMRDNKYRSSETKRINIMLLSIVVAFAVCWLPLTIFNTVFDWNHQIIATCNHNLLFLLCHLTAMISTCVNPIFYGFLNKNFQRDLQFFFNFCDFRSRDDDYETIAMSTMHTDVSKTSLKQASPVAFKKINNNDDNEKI

**Q.** With `CCN(CC)CC#CCC(C)(c1ccccc1)c1ccccc1` as the compound, how does the IC50 [1] read?
**A.** < 12 µM (not active)

**Q.** What about the IC50 [2] of the same compound?
**A.** 6.17 µM (active)

**Q.** Which EC50 (Bcl-2-like protein 10) does the source give for `Cc1cc(C)nc(/N=C(\N)Nc2ccc(N)cc2)n1` here?
**A.** 5.38 µM (active)

**Q.** For `CN(C)S(=O)(=O)c1cccc(-c2nn(-c3ccccc3)cc2/C=C2\SC(=S)N(CC(=O)O)C2=O)c1`, which IC50 [3] is on record?
**A.** 48.8 µM (active)

**Q.** And the IC50 [4]?
**A.** 4.8 µM (active)

**Q.** What about the AC50 [5] of the same compound?
**A.** 15.5 µM (active)

**Q.** What about the CC50 (Vero) of the same compound?
**A.** > 40 µM (active)

**Q.** What about the IC50 (Genome polyprotein) of the same compound?
**A.** 79.5 µM (active)

**Q.** For `COC(=O)C1CCN(C(=O)/C=C/c2ccc(OC)cc2)CC1`, which EC50 [6] is on record?
**A.** > 49.7 µM (not active)

**Q.** What about the EC50 (Wee1-like protein kinase) of the same compound?
**A.** > 49.7 µM (not active)

**Q.** And the IC50 (Beta-galactosidase)?
**A.** > 80 µM (inactive)

**Q.** With `CCc1cc(C(=O)O)c(NC(=O)C(c2ccccc2)c2ccccc2)s1` as the compound, how does the IC50 [7] read?
**A.** 23.2 µM (active)

**Q.** For `Cc1ccc(C)c(C(=O)Cn2ncc(Cl)c(Cl)c2=O)c1`, which EC50 [8] is on record?
**A.** 3.56 µM (active)

**Q.** What about the EC50 [9] of the same compound?
**A.** 2.35 µM (active)

**Q.** And the IC50 [10]?
**A.** 2.99 µM (active)

**Q.** What about the IC50 [11] of the same compound?
**A.** 12.1 µM (not active)

**Q.** And the AC50 [12]?
**A.** 14.5 µM (active)

**Q.** And the AC50 [13]?
**A.** 8.4 µM (active)
